Experimental data reported in PMC11784183, “Identification of an antibiotic from an HTS targeting EF-Tu:tRNA interaction: a prospective topical treatment for MRSA skin infections” (Applied and Environmental Microbiology, 2024).

Settings: mouse, in vivo, ip, 10 mg/kg

Structure (SMILES): CC[C@@H]1Cc2cc(O)ccc2C2=C1c1ccc(O)cc1C[C@H]2CC [MGC-10]
- passage of the blood brain barrier: did not pass the blood brain barrier
